Consider 2 compounds from ChEMBL document CHEMBL3044656, “Influence of soil fumigation on 2,4-D and dicamba carryover in fresh market tomato” (Crop Prot, 2006).

In data set [1] the test system is Solanum lycopersicum. Briefly: Phytotoxicity in Solanum lycopersicum (tomato) plant in fumigated soil assessed as plant vigour at 2.28 kg/ha after 134 days (reference value: 82%). In kind it is organism-based. The conditions noted are these: in vivo, other, 3216 h.
In data set [2] the test system is Solanum lycopersicum. In words: Phytotoxicity in Solanum lycopersicum (tomato) plant in non-fumigated soil assessed as decrease in total fruit yield at 1.14 to 2.28 kg/ha after 174 days relative to untreated control. Type of data set: organism-based. Further details: scale not given: the % may be the effect or the level left. The conditions noted are these: in vivo, other, 4176 h.

Data set [3] relates to Solanum lycopersicum. Briefly: Phytotoxicity in Solanum lycopersicum (tomato) plant assessed as plant vigour at 1.14 kg/ha after 134 days (reference value: 82%). The note with it: in vivo, 3216 h. In kind it is organism-based.
The nature of data set [4]: Half life of the compound.

The structures appear in SMILES notation.

For `O=C(O)COc1ccc(Cl)cc1Cl` [2,4-DICHLOROPHENOXYACETIC ACID], the Activity in data set [1] stood at 80%; in data set [2], 9%; in data set [3] it was 83%. In data set [4], the half-life (commonly how long it takes for the measured level to halve) is 10 days.
Take `COc1c(Cl)ccc(Cl)c1C(=O)O` [3,6 DICHLOROMETHOXYBENZOIC ACID]: in data set [4], the half-life was 14 days.
